Converted amounts (≈) assume the structure as drawn. Counter-ions that a name gives are not always drawn. Like-named read-outs stand apart in the source and are kept apart here.
Key:
mice [1] = experiment: analgesic activity, painful abdominal torsions test with phenylbenzoquinone; assay type: in vivo, CD 1 (Charles RIVER) mice; conditions: Mus musculus, po; mice, orally; read-out: Phenylbenzoquinone test on mice AD 50
Source text: The analgesic properties of the products according to the invention have been shown with CD 1 (Charles RIVER) mice in the painful abdominal torsions test with phenylbenzoquinone according to the technique of E. Siegmund, R. Cadmus and Go.Lu--Proc. Soc. Exp. Biol. Med., 95, 729, (1957).

[2] = tested on: serotonine plantar oedema; experiment: anti-serotonine activity, serotonine plantar oedema; assay type: in vivo, CD (Charles RIVER) rats; conditions: po; rat, orally; read-out: Serotonine plantar oedema AD 50
Source text: (§1) The anti-serotonine activities of the compounds according to the invention have been shown by oral administration to the CD (Charles RIVER) rats using the technique of the serotonine plantar oedema (W. Theobald and R. Domenjoz--Arzneimittel Forsch, 8, 18, 1958 and with the CD 1 (Charles RIVER) mice using the technique known as "head twitch" according to S. J. Corne, R. W. Pickering and B. T. Warner, Brit. J. Pharmacol., 20, 106, (1963). The anti-serotonine activity has also been determined on the one hand on the tricoloured guinea-pig, given intravenously, according to a method derived from H. Konzet and R. Rossler, Arch. exp. Pathol, Pharmakol., 195, 71, (1940) and on the other hand in vitro with respect to the serotonine spasm of the isolated uterus of the rat according to the technique of A. Fanchamps, W. Doepfener, H. Weidman and A. Cerletti, Schw. Med. Worsch, 90, 1940, (1960).

dogs = experiment: anti-emetic activity, apomorphine vomiting test on dogs; assay type: in vivo; conditions: for ED50: Canis lupus familiaris, po, read-out: Anti-emetic activity on dogs ED 50
Source text: The anti-emetic properties of the compounds according to the invention have been shown by oral administration of apomorphine to dogs in the vomiting test according to G. Chen and C. J. Ensor, Pharmacol. exp. Therap., 98, 24 (1950).

mouse [3] = experiment: traction test, mouse; assay type: in vivo, CD1 (Charles RIVER) mice; conditions: po, orally, read-out: Traction AD 50
Source text: (§2) The neuroloptic effects of the compounds according to the invention have been shown with respect to the CD rat (Charles RIVER) taken orally in the catalepsy test according to S. COURVOISIER, R. DUCROT, and L. JULOU, in Psychotropic Drugs, S. GARATTINI and V. GHETTI, Edit.--ELSEVIER Publ. Co., AMSTERDAM, LONDON, NEW YORK, PRINCETON, 1957 P. 373 and also in the traction test of CD1 (Charles RIVER) mice taken orally S. COURVOISIER, Quart. Rev. Psychiat. Neurol. 17, 25 (1956), on the one hand and also in the spontaneous motility test.

[4] = acute toxicity, LD 50, CD 1 mice; assay type: in vivo; conditions: mouse, in vivo
Source text: (§3) The acute toxicities of the compounds according to the invention have been determined on CD 1 (Charles RIVER) mice by intravenous and oral methods. The LD 50 of each compound has been calculated by the cumulative method of J. J. Reed and H. Muench, (Amer. J. Hyg., 1938, 27, 493).

head twitch = experiment: anti-serotonine activity, head twitch; assay type: in vivo, CD 1 (Charles RIVER) mice; conditions: Mus musculus, po; mice, orally; read-out: "Head-twitch" AD 50
Source text: as §1

rat = experiment: catalepsy test, rat; assay type: in vivo, CD rat (Charles RIVER); conditions: po, orally, read-out: Catalepsy AD 50
Source text: as §2

[5] = tested on: isolated duodenum of the rabbit (barium chloride); experiment: spasmolytic effect on isolated duodenum, barium chloride spasm; assay type: cell-based; conditions: Oryctolagus cuniculus, read-out: Spasmolytic effects EC 50 with respect to barium chloride
Source text: (§4) Ges. Physiol., 102, 123, (1904) with respect to the spasms of the isolated duodenum of rabbits caused either by acetylchlorine for the spasmolytic nemotropes or by barium chloride for the spasmolytic musculotropes.

[6] = tested on: isolated duodenum of the rabbit (acetylcholine); experiment: spasmolytic effect on isolated duodenum, acetylcholine spasm; assay type: cell-based; conditions: Oryctolagus cuniculus, read-out: Spasmolytic effects EC 50 with respect to acetylcholine
Source text: as §4

serotonine bronchospasms = experiment: anti-serotonine activity, serotonine bronchospasms; assay type: in vivo, tricoloured guinea-pig; conditions: Cavia porcellus, iv; guinea pig, intravenously; read-out: Serotonine bronchospasms ED 50
Source text: as §1

mice [7] = experiment: acute toxicity, LD 50, CD 1 mice; assay type: in vivo; conditions: intravenous
Source text: as §3

solubility = assay type: physicochemical
mouse [8] = experiment: spontaneous motility test (hypomotility), mouse; assay type: in vivo, mice; conditions: po, 1 h, orally, 60 minutes before measuring, 50% reduction of mean motility, first 5 minutes, read-out: Hypomotility ED 50
Source text: as §2
This latter technique comprises keeping an account of the displacements of the mice by means of a floor of metal strips which enables the spontaneous activity of the animals to be recorded during the first 5 minutes subsequent to their being introduced into the measuring chamber. The products are dispensed 60 minutes before measuring is effected and 10 mice are used per dose. The results are expressed in ED 50 which represents the dose of substance capable of reducing the mean motility of the treated animals by 50% relative to that of the sample group which has only received the dispensing carrier.

[9] = intravenous, read-out: Acute toxicity for mice LD 50, intravenous
[10] = oral, read-out: Acute toxicity for mice LD 50, orally

Compound | ED50 (mice [1]) [mg/kg] | ED50 [2] [mg/kg] | ED50 (dogs) [mg/kg] | ED50 (mouse [3]) [mg/kg] | LD50 [4, 9] [mg/kg] | LD50 [4, 10] [mg/kg] | ED50 (head twitch) [mg/kg] | ED50 (rat) [mg/kg] | EC50 [5] [µg/mL] | EC50 [6] [µg/mL] | ED50 (serotonine bronchospasms) [mg/kg] | Acute toxicity for mice LD 50, intravenous (mice [7]) | anti-vomiting ranking (dogs; comparison within the series, dogs) | ED50 (dogs; dogs, orally, apomorphine) [mg/kg] | solubility in dilute hydrochloric acid (solubility) | solubility in ethanol (alcohol) (solubility) | solubility in water (solubility) | ED50 (mouse [8]) [mg/kg] | solubility in dilute methanesulphonic acid (solubility; dilute methanesulphonic acid)
CCNc1nc(Cl)c(SC)c(N2CCN(C)CC2)n1 [Example 1, 2-Ethylamino-4-N-methyl-piperazino-6-chloro-5-methylthio-pyrimidine hydrochloride] | 35 | 160 | 0.35 | > 35 | 41 | ~200 | 30 | 85 | 1.6 | 5 | 6 |  |  |  |  |  |  |  | 
CSc1c(Cl)nc(Nc2ccccc2)nc1N1CCN(C)CC1 [Example 4, 2-phenylamino-4-N-methylpiperazino-6-chloro-5-methylthio-pyrimidine hydrochloride] |  |  |  |  |  | ~600 | 60 |  |  |  |  | insoluble |  |  |  |  |  |  | 
CSc1c(Cl)nc(N)nc1N1CCN(C)CC1 [Example 6, 2-Amino-4-N-methylpiperazino-6-chloro-5-methylthio-pyrimidine hydrochloride] |  |  | 0.11 | > 100 | 33 | ~225 | 30 | 100 |  |  | 1.2 |  |  |  |  |  |  |  | 
CNc1nc(Cl)c(SC)c(N2CCNCC2)n1 [Example 10, 2-Methylamino-4-piperazino-6-chloro-5-methylthio-pyrimidine hydrochloride] | 65 |  | 0.07 |  | 57 | ~225 |  | 75 |  |  |  |  | the most strong anti-vomiting agents |  |  |  |  |  | 
CSc1c(Cl)nc(N(C)C(=O)c2ccccc2)nc1N1CCN(C)CC1 [Example 13, 2-(N-methyl-N-benzoyl)amino-4-N-methyl-piperazino-6-chloro-5-methylthio-pyrimidine hydrochloride] |  | > 300 |  |  | 91 | ~600 | 300 |  | 2.6 | 4 |  |  |  | 1.9 |  |  |  |  | 
CC(=O)Nc1nc(Cl)c(C)c(N2CCN(C)CC2)n1 [Example 14, 2-Acetylamino-4-N-methylpiperazino-5-methyl-6-chloro-pyrimidine] | 35 |  |  |  |  | ~270 |  |  |  |  |  | insoluble |  | 3.7 |  |  |  |  | 
CNc1nc(OC)c(SC)c(N2CCN(C)CC2)n1 [Example 17, 2-Methylamino-4-N-methylpiperazino-5-methyl-thio-6-methoxy-pyrimidine hydrochloride] |  | 100 | 1.4 |  | 58 | ~400 |  |  |  |  | 3 |  |  |  |  |  |  |  | 
C=CCOc1nc(NC)nc(N2CCN(C)CC2)c1SC [Example 19, 2-methylamino-4-N-methylpiperazino-5-methylthio-6-allyloxy-pyrimidine hydrochloride] | 100 | > 100 |  |  | 56 | ~400 |  |  | 3.1 | > 5 |  |  |  | 1.5 |  |  |  |  | 
CCOCCOc1nc(NC)nc(N2CCN(C)CC2)c1SC [Example 20, 2-Methylamino-4-N-methylpiperazino-5-methylthio-6-β-ethoxyethoxy-pyrimidine hydrochloride] |  |  |  |  |  | ~265 |  |  |  |  |  | insoluble |  |  |  |  |  |  | 
C=CCNc1nc(Cl)c(SC)c(N2CCN(C)CC2)n1 [Example 21, 2-Allylamino-4-N-methylpiperazino-6-chloro-5-methylthio-pyrimidine] | > 100 | > 100 |  |  | 46 | ~200 | 20 | 300 | 1 (≈ 3.19 µM) | 1.6 (≈ 5.1 µM) | 0.01 |  |  | 0.8 | soluble | soluble | water-insoluble | 28 | 
CSc1c(Cl)nc(NCCO)nc1N1CCN(C)CC1 [Example 22, 2-N-(β-hydroxyethyl)amino-4-N-methylpiperazino-6-chloro-5-methylthiopyrimidine] | > 100 |  |  |  | 89 | ~600 | > 100 |  | > 10 | > 10 | 0.16 |  |  | 0.85 | soluble | soluble | insoluble | 100 | 
CSc1c(Cl)nc(NC2CCCCC2)nc1N1CCN(C)CC1 [Example 23, 2-Cyclohexylamino-4-N-methylpiperazino-6-chloro-5-methylthiopyrimidine] | 100 |  |  | > 300 | 89 |  | 67 | 300 | 0.25 (≈ 0.702 µM) | 70 (≈ 197 µM) | 0.3 |  |  |  | soluble | soluble | insoluble | 220 | 
CSc1c(Cl)nc(NCc2ccccc2)nc1N1CCN(C)CC1 [Example 26, 2-Benzylamino-4-N-methylpiperazino-5-methylthio-6-chloropyrimidine] | 35 |  |  | 45 | 85 | ~525 | 17 | 33 | 0.17 (≈ 0.467 µM) | 0.2 (≈ 0.55 µM) | 0.05 |  |  | ~2 | scarcely soluble |  | soluble | 20 | soluble
CSc1c(Cl)nc(N2CCOCC2)nc1N1CCN(C)CC1 [Example 28, 2-Morpholino-4-N-methylpiperazino-6-chloro-5-methylthiopyrimidine] | > 100 | > 100 |  |  | 110 | ~400 | 70 |  | 1.7 (≈ 4.94 µM) | 4.5 (≈ 13.1 µM) | > 0.1 |  |  | > 5 | soluble | soluble | insoluble | 100 | 
COc1ccc(Nc2nc(Cl)c(SC)c(N3CCN(C)CC3)n2)cc1 [Example 32, 4'-methoxy-2-phenylamino-4-N-methylpiperazino-6-chloro-5-methylthiopyrimidine] | > 35 |  |  |  | 83 | ~495 | 27 |  |  | 5.5 (≈ 14.5 µM) | 0.9 |  |  |  | soluble |  | insoluble | 60 | 

From patent US4166852A, “Piperazino-pyrimidines and their use as spasmolytic agents” (priority 1974, dated 1979)
